# Biological target: T1, Orexin receptor type 2 (Homo sapiens, UniProt O43614)
# T1 sequence (O43614 whole entry): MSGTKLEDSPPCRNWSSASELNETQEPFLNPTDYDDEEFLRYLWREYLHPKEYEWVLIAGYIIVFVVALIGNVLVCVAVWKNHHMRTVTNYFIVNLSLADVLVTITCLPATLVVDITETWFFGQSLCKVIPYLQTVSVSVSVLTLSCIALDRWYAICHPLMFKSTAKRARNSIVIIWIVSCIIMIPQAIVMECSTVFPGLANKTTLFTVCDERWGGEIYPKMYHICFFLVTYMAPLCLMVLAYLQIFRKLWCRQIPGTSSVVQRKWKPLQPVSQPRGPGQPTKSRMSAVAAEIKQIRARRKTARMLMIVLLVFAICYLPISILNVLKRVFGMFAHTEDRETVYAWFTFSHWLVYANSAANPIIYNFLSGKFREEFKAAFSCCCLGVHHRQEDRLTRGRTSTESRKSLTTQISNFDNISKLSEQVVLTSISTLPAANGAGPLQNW
# Assay: Receptor Activity Assay
# Protocol: In a typical experiment, the OX1 and OX2 receptor agonist activity is determined in accordance with the following general experimental method.
row,SMILES,IC50 [nM]
1,"CC[C@@H]1C[C@H](NS(C)(=O)=O)[C@H](CO[C@H]2CC[C@@H](c3ccccc3)CC2)N1C(=O)OC (racemic) [US11098029, Example 43]",8.1
2,"CCNC(=O)N1[C@H](C)C[C@H](NS(C)(=O)=O)[C@@H]1COC1CCC(C(F)(F)F)CC1 (some centres not stated) [US11098029, Example 2]",117
3,"COC(=O)N1[C@H](C)C[C@H](NS(C)(=O)=O)[C@@H]1COC1CCC(C(C)C)CC1 (some centres not stated) [US11098029, Example 3]",19.3
4,"CC(C)OC(=O)N1[C@H](C)C[C@H](NS(C)(=O)=O)[C@@H]1COC1CCC(C(C)C)CC1 (some centres not stated) [US11098029, Example 5]",227
5,"CCOC(=O)N1[C@H](C)C[C@H](NS(=O)(=O)N(C)C)[C@@H]1COC1CCC(C(C)C)CC1 (some centres not stated) [US11098029, Example 8]",9.52
6,"CC(C)C1CCC(OC[C@H]2[C@@H](NS(C)(=O)=O)C[C@@H](C)N2C(=O)OCC(F)F)CC1 (some centres not stated) [US11098029, Example 9]",8.57
7,"CC(C)C1CCC(OC[C@H]2[C@@H](NS(C)(=O)=O)C[C@@H](C)N2C(=O)OCCF)CC1 (some centres not stated) [US11098029, Example 10]",69.3
8,"COC(=O)N1[C@H](C)C[C@H](NS(=O)(=O)N(C)C)[C@@H]1COC1CCC(C(F)(F)F)CC1 (some centres not stated) [US11098029, Example 11]",264
9,"COC(=O)N1[C@H](C)C[C@H](NS(C)(=O)=O)[C@@H]1COC1CCC(CC(F)(F)F)CC1 (some centres not stated) [US11098029, Example 12]",390
10,"CNS(=O)(=O)N[C@H]1C[C@@H](C)N(C(=O)OCC(F)F)[C@H]1COC1CCC(C(C)C)CC1 (some centres not stated) [US11098029, Example 13]",1.9
11,"CC(C)C1CCC(OC[C@H]2[C@@H](NS(=O)(=O)N(C)C)C[C@@H](C)N2C(=O)OCC(F)F)CC1 (some centres not stated) [US11098029, Example 14]",2.5
12,"COC(=O)N1[C@H](C)C[C@H](NS(=O)(=O)N(C)CCS(C)(=O)=O)[C@@H]1COC1CCC(c2cccc(F)c2)CC1 (some centres not stated) [US11098029, Example 57]",1.6

# From BindingDB's records for patent US11098029 (Merck Sharp & Dohme, 2021)
